Results: patent US10670605B2, “Cysteine reactive probes and uses thereof” (The Scripps Research Institute, priority 2015, dated 2020)
Blank lines part the entries; values can stand above or below the compound they belong to.

Columns and labels:
Experiment in all cases: Competitive isoTOP-ABPP in situ (fragment-treated cells)
Assay type in all cases: cell-based
[1] = target: T1, cysteines in MDA-MB-231 and Ramos cells (Homo sapiens, UniProt Q7Z5K2)
T1 sequence (Q7Z5K2 1-1190): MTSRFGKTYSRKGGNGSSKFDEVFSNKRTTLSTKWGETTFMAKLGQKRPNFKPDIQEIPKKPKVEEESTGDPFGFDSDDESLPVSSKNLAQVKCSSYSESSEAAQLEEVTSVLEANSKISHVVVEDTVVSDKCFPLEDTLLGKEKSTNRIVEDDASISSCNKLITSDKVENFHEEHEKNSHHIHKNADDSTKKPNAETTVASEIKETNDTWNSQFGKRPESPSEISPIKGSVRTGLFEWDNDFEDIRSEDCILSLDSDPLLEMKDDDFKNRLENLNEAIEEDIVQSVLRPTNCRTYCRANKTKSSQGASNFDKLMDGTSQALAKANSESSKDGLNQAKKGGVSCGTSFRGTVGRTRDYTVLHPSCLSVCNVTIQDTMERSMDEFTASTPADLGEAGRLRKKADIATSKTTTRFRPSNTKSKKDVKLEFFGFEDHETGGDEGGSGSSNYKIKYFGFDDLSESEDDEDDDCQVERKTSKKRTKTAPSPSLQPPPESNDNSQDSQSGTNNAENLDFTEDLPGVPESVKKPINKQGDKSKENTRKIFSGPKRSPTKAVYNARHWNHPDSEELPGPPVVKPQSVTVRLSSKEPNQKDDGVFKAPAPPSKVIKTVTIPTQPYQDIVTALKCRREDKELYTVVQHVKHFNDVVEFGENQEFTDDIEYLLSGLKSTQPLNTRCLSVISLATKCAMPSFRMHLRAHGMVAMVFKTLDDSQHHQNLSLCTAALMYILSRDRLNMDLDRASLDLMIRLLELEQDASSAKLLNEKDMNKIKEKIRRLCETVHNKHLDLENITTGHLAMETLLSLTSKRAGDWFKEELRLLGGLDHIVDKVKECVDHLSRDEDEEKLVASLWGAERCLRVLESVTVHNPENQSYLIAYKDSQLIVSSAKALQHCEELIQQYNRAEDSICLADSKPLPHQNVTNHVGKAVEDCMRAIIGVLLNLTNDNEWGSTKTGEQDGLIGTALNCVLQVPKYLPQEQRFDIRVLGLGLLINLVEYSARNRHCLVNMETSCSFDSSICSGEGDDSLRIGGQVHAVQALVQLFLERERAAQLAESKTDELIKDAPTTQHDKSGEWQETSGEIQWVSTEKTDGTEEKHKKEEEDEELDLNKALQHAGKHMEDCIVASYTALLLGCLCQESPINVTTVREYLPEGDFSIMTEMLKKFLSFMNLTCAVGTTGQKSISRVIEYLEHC

[2] = target: T2, cysteines in MDA-MB-231 and Ramos cells (Homo sapiens, UniProt Q99798); conditions: 200 μM, insitu, 231
T2 sequence (Q99798 28-780): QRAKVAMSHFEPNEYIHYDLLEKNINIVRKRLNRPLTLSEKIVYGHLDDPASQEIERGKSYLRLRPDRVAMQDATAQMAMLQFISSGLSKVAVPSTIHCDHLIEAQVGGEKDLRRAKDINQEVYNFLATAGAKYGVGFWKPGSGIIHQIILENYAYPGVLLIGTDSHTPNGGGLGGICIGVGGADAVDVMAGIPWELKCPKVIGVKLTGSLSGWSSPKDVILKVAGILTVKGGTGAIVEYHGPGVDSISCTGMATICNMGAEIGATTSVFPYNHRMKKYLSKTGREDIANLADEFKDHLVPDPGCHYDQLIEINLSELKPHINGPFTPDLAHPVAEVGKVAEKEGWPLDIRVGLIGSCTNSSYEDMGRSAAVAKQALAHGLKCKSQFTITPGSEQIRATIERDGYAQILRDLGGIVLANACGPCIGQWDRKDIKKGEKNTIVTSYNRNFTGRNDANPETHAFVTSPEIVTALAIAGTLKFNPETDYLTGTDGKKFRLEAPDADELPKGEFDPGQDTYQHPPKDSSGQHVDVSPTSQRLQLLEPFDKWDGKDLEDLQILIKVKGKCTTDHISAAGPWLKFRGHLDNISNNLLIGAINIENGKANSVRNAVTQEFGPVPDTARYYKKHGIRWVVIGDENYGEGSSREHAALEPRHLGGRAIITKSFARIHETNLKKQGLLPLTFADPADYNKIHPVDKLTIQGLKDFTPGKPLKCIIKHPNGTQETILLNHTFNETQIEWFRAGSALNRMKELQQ

[3] = target: T3, cysteines in MDA-MB-231 and Ramos cells (Homo sapiens, UniProt Q9C0I1); conditions: 200 μM, insitu
T3 sequence (Q9C0I1 1-747): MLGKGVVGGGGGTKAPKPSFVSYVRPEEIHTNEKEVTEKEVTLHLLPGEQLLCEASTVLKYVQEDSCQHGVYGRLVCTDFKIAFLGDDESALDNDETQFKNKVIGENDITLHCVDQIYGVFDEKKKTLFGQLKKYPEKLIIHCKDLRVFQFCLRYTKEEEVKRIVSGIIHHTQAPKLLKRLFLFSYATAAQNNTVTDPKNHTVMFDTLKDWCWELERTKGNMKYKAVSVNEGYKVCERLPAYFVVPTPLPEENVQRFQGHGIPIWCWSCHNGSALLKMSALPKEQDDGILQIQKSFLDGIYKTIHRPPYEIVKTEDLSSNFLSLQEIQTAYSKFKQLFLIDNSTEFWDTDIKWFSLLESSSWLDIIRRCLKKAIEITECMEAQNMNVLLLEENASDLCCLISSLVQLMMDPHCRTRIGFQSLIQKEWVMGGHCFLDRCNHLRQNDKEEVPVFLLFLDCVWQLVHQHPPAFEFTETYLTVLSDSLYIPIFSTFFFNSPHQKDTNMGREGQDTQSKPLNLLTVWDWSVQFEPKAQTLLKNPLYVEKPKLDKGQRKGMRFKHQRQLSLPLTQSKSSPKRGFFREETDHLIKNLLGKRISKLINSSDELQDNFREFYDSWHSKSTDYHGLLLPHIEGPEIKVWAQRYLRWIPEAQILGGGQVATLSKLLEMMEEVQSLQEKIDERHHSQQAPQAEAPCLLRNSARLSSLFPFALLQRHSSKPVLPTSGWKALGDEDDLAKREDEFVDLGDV

[4] = target: T4, cysteines in MDA-MB-231 and Ramos cells (Homo sapiens, UniProt Q9BR61); conditions: 200 μM, insitu
T4 sequence (Q9BR61 1-282): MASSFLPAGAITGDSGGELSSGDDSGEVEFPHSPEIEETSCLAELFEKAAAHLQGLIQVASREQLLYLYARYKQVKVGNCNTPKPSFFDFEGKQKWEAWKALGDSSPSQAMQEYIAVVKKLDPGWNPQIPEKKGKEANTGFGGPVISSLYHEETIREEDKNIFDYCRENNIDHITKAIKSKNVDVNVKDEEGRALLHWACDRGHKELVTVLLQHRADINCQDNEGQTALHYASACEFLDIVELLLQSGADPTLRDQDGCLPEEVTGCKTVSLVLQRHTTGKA

SMILES: O=C(CCl)N1CCN(S(=O)(=O)c2ccccc2F)CC1 [compound 10]
- isoTOP-ABPP ratio, cysteine Q7Z5K2_C160 ([1]; 200 μM, insitu, 231): 20.0
- isoTOP-ABPP ratio, cysteine Q99798_C385 [2]: 0.7

SMILES: Cn1cc(S(=O)(=O)N2CCOCC2)cc1C(=O)NC(=O)CCl [compound 11]
- isoTOP-ABPP ratio, cysteine Q7Z5K2_C160 ([1]; 100 μM in situ 231): 1.0

SMILES: O=C(CCl)NCCc1c[nH]c2ccccc12 [compound 13]
- isoTOP-ABPP ratio, cysteine Q9C0I1_C152 ([3]; ramos): 6.5
- isoTOP-ABPP ratio, cysteine Q9BR61_C267 [4]; 231: 1.1

The next lines start with the values.

- isoTOP-ABPP ratio, cysteine Q9C0I1_C152 [3]; 231: 20.0
SMILES: O=C(CCl)NC(=O)NC12CC3CC(CC(C3)C1)C2 [compound 12]

- isoTOP-ABPP ratio, cysteine Q99798_C385 [2]: 2.0
- isoTOP-ABPP ratio, cysteine Q9C0I1_C152 [3]; 231: 0.7
SMILES: O=C(CCl)NC12CC3CC(CC(C3)C1)C2 [compound 21]

- isoTOP-ABPP ratio Q7Z5K2_C160 ([1]; 200 μM, insitu, ramos): 0.7
- isoTOP-ABPP ratio Q9C0I1_C152 ([3]; ramos): 4.6
- isoTOP-ABPP ratio Q9BR61_C267 ([4]; ramos): 2.5
SMILES: O=C(CCl)N1CCN(CC(=O)N2CCOCC2)CC1 [compound 29]

- isoTOP-ABPP ratio Q7Z5K2_C160 ([1]; 200 μM, insitu, 231): 1.0
- isoTOP-ABPP ratio Q99798_C385 [2]: 0.1
- isoTOP-ABPP ratio Q9BR61_C267 [4]; 231: 0.5
SMILES: Cc1ccc(C=C(C#N)C(=O)NCCN2CCOCC2)cc1 [compound 41]
